Laboratory results taken from patent US9573930B2 (Quanticel Pharmaceuticals, Inc., priority 2014, dated 2017).

Each compound was assayed against full-length human LSD1 (Homo sapiens (Human), UniProt O60341) (assay: In vitro enzyme inhibition assay LSD-1 (TR-FRET)). Details: H3K4me1-biotin peptide.
Assay type: biochemical
Method: This assay determines the ability of a test compound to inhibit LSD1 demethylase activity.
The enzymatic assay of LSD1 activity is based on Time Resolved-Fluorescence Resonance Energy Transfer (TR-FRET) detection.
The ability of the compounds disclosed herein to inhibit LSD1 activity was quantified and the respective IC50 value was determined.

Row | IC50 | SMILES
1 | < 100 nM | COc1c(F)cc(-c2c(-c3ccc(C#N)cc3)nc(N3CCC(N)CC3)n(C)c2=O)cc1F [Example 38, 4-[2-(4-aminopiperidyl)-5-(3,5-difluoro-4-methoxyphenyl)-1-methyl-6-oxohydropyrimidin-4-yl]benzenecarbonitrile]
2 | < 100 nM | COc1ccc(-c2c(-c3ccc(C#N)c(F)c3)nc(N3CC(CN)C3)n(C)c2=O)cc1 [Example 69, 4-[2-(3-aminomethyl-azetidin-1-yl)-5-(4-methoxy-phenyl)-1-methyl-6-oxo-1,6-dihydro-pyrimidin-4-yl]-2-fluoro-benzonitrile]
3 | < 100 nM | Cn1c(N2CCC(N)CC2)nc(-c2ccc(C#N)c(F)c2)c(-c2cnn(CC(F)(F)F)c2)c1=O [Example 34, 4-{2-(4-amino-piperidin-1-yl)-1-methyl-6-oxo-5-[1-(2,2,2-trifluoro-ethyl)-1H-pyrazol-4-yl]-1,6-dihydro-pyrimidin-4-yl}-2-fluoro-benzonitrile]
4 | < 100 nM | Cn1c(N2CCC(N)CC2)nc(-c2ccc(C#N)c(F)c2)c(-c2ccc3ccn(C)c3c2)c1=O [Example 76, 4-[2-(4-amino-piperidin-1-yl)-1-methyl-5-(1-methyl-1H-indol-6-yl)-6-oxo-1,6-dihydro-pyrimidin-4-yl]-2-fluoro-benzonitrile]
5 | < 100 nM | CN(C)c1ncc(-c2c(-c3ccc(C#N)c(F)c3)nc(N3CCC(N)CC3)n(C)c2=O)cn1 [Example 49, 4-[2-(4-amino-piperidin-1-yl)-2′-dimethylamino-1-methyl-6-oxo-1,6-dihydro-[5,5′]bipyrimidinyl-4-yl]-2-fluoro-benzonitrile]
6 | < 100 nM | CNC(=O)c1ccc(-c2c(-c3ccc(C#N)cc3)nc(N3CCC(N)CC3)n(C)c2=O)cc1F [Example 40, {4-[2-(4-aminopiperidyl)-6-(4-cyanophenyl)-3-methyl-4-oxo(3-hydropyrimidin-5-yl)]-2-fluorophenyl}-N-methylcarboxamide]
7 | < 100 nM | CN(C)c1ncc(-c2c(-c3ccc(C#N)c(F)c3)nc(N3CCC(N(C)C)CC3)n(C)c2=O)cn1 [Example 81, 4-[2′-dimethylamino-2-(4-dimethylamino-piperidin-1-yl)-1-methyl-6-oxo-1,6-dihydro-[5,5′]bipyrimidinyl-4-yl]-2-fluoro-benzonitrile]
8 | 100 to 1000 nM | Cn1c(N2CCC(N)CC2)nc(-c2ccc(C#N)c(F)c2)c(C#N)c1=O [Example 121, 2-(4-amino-piperidin-1-yl)-4-(4-cyano-3-fluoro-phenyl)-1-methyl-6-oxo-1,6-dihydro-pyrimidine-5-carbonitrile]
9 | < 100 nM | COc1ccc(-c2c(-c3ccc(C#N)c(F)c3)nc(N3CC(N)C3)n(C)c2=O)cc1 [Example 64, 4-[2-(3-amino-azetidin-1-yl)-5-(4-methoxy-phenyl)-1-methyl-6-oxo-1,6-dihydro-pyrimidin-4-yl]-2-fluoro-benzonitrile]
10 | < 100 nM | COc1ccc(-c2c(-c3ccc(C#N)c(F)c3)nc(N3CC[C@H](N)C3)n(C)c2=O)cc1F [Example 29, 4-[2-((3S)-3-amino-pyrrolidin-1-yl)-5-(3-fluoro-4-methoxy-phenyl)-1-methyl-6-oxo-1,6-dihydro-pyrimidin-4-yl]-2-fluoro-benzonitrile]
11 | < 100 nM | Cn1c(N2CCC(N)CC2)nc(-c2ccc(C#N)c(F)c2)c(-c2ccc3occc3c2)c1=O [Example 18, 4-[2-(4-amino-piperidin-1-yl)-5-benzofuran-5-yl-1-methyl-6-oxo-1,6-dihydro-pyrimidin-4-yl]-2-fluoro-benzonitrile]
12 | < 100 nM | COc1ccc(-c2c(-c3ccc(C#N)c(F)c3)nc(N3CCC[C@H](N)C3)n(C)c2=O)cc1F [Example 28, 4-[2-((3S)-3-amino-piperidin-1-yl)-5-(3-fluoro-4-methoxy-phenyl)-1-methyl-6-oxo-1,6-dihydro-pyrimidin-4-yl]-2-fluoro-benzonitrile]
13 | < 100 nM | Cn1c(N2CCC(N)CC2)nc(-c2ccc(C#N)c(F)c2)c(-c2ccc(Cl)cc2)c1=O [Example 106, 4-[2-(4-aminopiperidin-1-yl)-5-(4-chlorophenyl)-1-methyl-6-oxopyrimidin-4-yl]-2-fluorobenzonitrile]
14 | < 100 nM | Cn1c(N2CCC(N)CC2)nc(-c2ccc(C#N)c(F)c2)c(-c2ccc3cn[nH]c3c2)c1=O [Example 77, 4-[2-(4-amino-piperidin-1-yl)-5-(1H-indazol-6-yl)-1-methyl-6-oxo-1,6-dihydro-pyrimidin-4-yl]-2-fluoro-benzonitrile]
15 | < 100 nM | Cn1c(N2CCC(N)CC2)nc(-c2ccc(C#N)c(F)c2)c(C#N)c1=O [Example 19, 2-(4-amino-piperidin-1-yl)-4-(4-cyano-3-fluoro-phenyl)-1-methyl-6-oxo-1,6-dihydro-pyrimidine-5-carbonitrile]
16 | < 100 nM | Cn1cc2cc(-c3c(-c4ccc(C#N)c(F)c4)nc(N4CCCNCC4)n(C)c3=O)ccc2n1 [Example 66, 4-[2-[1,4]diazepan-1-yl-1-methyl-5-(2-methyl-2H-indazol-5-yl)-6-oxo-1,6-dihydro-pyrimidin-4-yl]-2-fluoro-benzonitrile]

Row | IC50 | SMILES
17 | < 100 nM | Cn1c(N2CCC(N)CC2)nc(-c2ccc(C#N)c(F)c2)c(-c2ccc(CO)cc2)c1=O [Example 100, 4-[2-(4-aminopiperidin-1-yl)-5-[4-(hydroxymethyl)phenyl]-1-methyl-6-oxopyrimidin-4-yl]-2-fluorobenzonitrile]
18 | < 100 nM | COc1ccc(-c2c(-c3ccc(C#N)c(F)c3)nc(N3CCC[C@H](N)C3)n(C)c2=O)cc1 [Example 31, 4-[2-((3S)-3-amino-piperidin-1-yl)-5-(4-methoxy-phenyl)-1-methyl-6-oxo-1,6-dihydro-pyrimidin-4-yl]-2-fluoro-benzonitrile]
19 | < 100 nM | COc1ccc(-c2c(-c3ccc(C#N)cc3)nc(N3CCCNCC3)n(C)c2=O)cn1 [Example 62]
20 | < 100 nM | Cn1c(N2CCC(N)CC2)nc(-c2ccc(C#N)c(F)c2)c(-c2cc(F)cc(F)c2)c1=O [Example 103, 4-[2-(4-aminopiperidin-1-yl)-5-(3,5-difluorophenyl)-1-methyl-6-oxopyrimidin-4-yl]-2-fluorobenzonitrile]
21 | > 10000 nM | COc1ccc(-c2c(-c3cccc(C#N)c3)nc(N3CCC(N)CC3)n(C)c2=O)cc1F [Example 118, 3-[2-(4-aminopiperidin-1-yl)-5-(3-fluoro-4-methoxyphenyl)-1-methyl-6-oxopyrimidin-4-yl]benzonitrile]
22 | < 100 nM | COc1ccc(-c2c(-c3ccc(C#N)c(F)c3)nc(N3CCCNCC3)n(C)c2=O)cc1F [Example 46, 4-[2-[1,4]diazepan-1-yl-5-(3-fluoro-4-methoxy-phenyl)-1-methyl-6-oxo-1,6-dihydro-pyrimidin-4-yl]-2-fluoro-benzonitrile]
23 | < 100 nM | Cc1ccc(-c2c(-c3ccc(C#N)c(F)c3)nc(N3CCC(N(C)C)CC3)n(C)c2=O)cn1 [Example 82, 4-[2-(4-dimethylamino-piperidin-1-yl)-1-methyl-5-(6-methyl-pyridin-3-yl)-6-oxo-1,6-dihydro-pyrimidin-4-yl]-2-fluoro-benzonitrile]
24 | < 100 nM | COc1ccc(-c2c(-c3ccc(C#N)c(F)c3)nc(N3CC[C@@H](N)C3)n(C)c2=O)cc1F [Example 27, 4-[2-((3R)-3-aminopyrrolidinyl)-5-(3-fluoro-4-methoxyphenyl)-1-methyl-6-oxohydropyrimidin-4-yl]-2-fluorobenzenecarbonitrile]
25 | < 100 nM | COc1ccc(-c2c(-c3ccc(C#N)c(F)c3)nc(N(C)C[C@H]3CCNC3)n(C)c2=O)cc1 [Example 54, 2-fluoro-4-[5-(4-methoxy-phenyl)-1-methyl-2-(methyl-(3S)-pyrrolidin-3-ylmethyl-amino)-6-oxo-1,6-dihydro-pyrimidin-4-yl]-benzonitrile]
26 | < 100 nM | CNCC1CN(c2nc(-c3ccc(C#N)c(F)c3)c(-c3ccc(OC)cc3)c(=O)n2C)C1 [Example 70, 2-fluoro-4-[5-(4-methoxy-phenyl)-1-methyl-2-(3-methylaminomethyl-azetidin-1-yl)-6-oxo-1,6-dihydro-pyrimidin-4-yl]-benzonitrile]
27 | < 100 nM | COc1ccc(-c2c(-c3ccc(C#N)cc3)nc(NC[C@@H]3CCNC3)n(C)c2=O)cc1F [Example 45, 4-{5-(3-fluoro-4-methoxy-phenyl)-1-methyl-6-oxo-2-[(3R)-(pyrrolidin-3-ylmethyl)-amino]-1,6-dihydro-pyrimidin-4-yl}-benzonitrile]
28 | < 100 nM | CNC1CCN(c2nc(-c3ccc(C#N)c(F)c3)c(-c3ccc(C)nc3)c(=O)n2C)CC1 [Example 21, 2-fluoro-4-[1-methyl-2-(4-methylamino-piperidin-1-yl)-5-(6-methyl-pyridin-3-yl)-6-oxo-1,6-dihydro-pyrimidin-4-yl]-benzonitrile]
29 | > 10000 nM | Cn1c(N2CCC(N)CC2)nc(-c2ccccc2)c(-c2ccc3c(ccn3C)c2)c1=O [Example 114, 2-(4-amino-piperidin-1-yl)-3-methyl-5-(1-methyl-1H-indol-5-yl)-6-phenyl-3H-pyrimidin-4-one]
30 | < 100 nM | COCCOc1ccc(-c2c(-c3ccc(C#N)c(F)c3)nc(N3CCC(N)CC3)n(C)c2=O)cc1 [Example 98, 4-[2-(4-aminopiperidin-1-yl)-5-[4-(2-methoxyethoxy)phenyl]-1-methyl-6-oxopyrimidin-4-yl]-2-fluorobenzonitrile]
31 | < 100 nM | Cn1c(N2CCC(N)CC2)nc(-c2ccc(C#N)cc2)c(-c2ccc(C(N)=O)c(F)c2)c1=O [Example 41, 4-[2-(4-aminopiperidyl)-6-(4-cyanophenyl)-3-methyl-4-oxo(3-hydropyrimidin-5-yl)]-2-fluorobenzamide]

Row | SMILES | IC50
32 | COc1ccc(-c2c(-c3ccc(C#N)c(F)c3)nc(N3CCCNCC3)n(C)c2=O)cn1 [Example 61, 4-[2-[1,4]diazepan-1-yl-5-(6-methoxy-pyridin-3-yl)-1-methyl-6-oxo-1,6-dihydro-pyrimidin-4-yl]-2-fluoro-benzonitrile] | < 100 nM
